Key:
LRRK2 = LRRK2 (Homo sapiens, UniProt Q5S007); test: experiment of inhibiting kinase activity, LRRK2; type: biochemical; conditions: for inhibition at 0.1 µM: at 100 nM; for inhibition at 0.1 µM / inhibition at 0.01 µM: read-out: inhibition rate LRRK2; for IC50: kinase activity assay, Table 3; for inhibition at 0.01 µM: at 10 nM
Method: The inhibition rates of tested compounds on JAK1, JAK2, JAK3, TYK2, CDK7, CDK9, EGFR (T790M) and LRRK2 kinases were measured. The test concentrations of the compounds were 10 nM and 100 nM, and the detection was performed by replicate wells. Alternatively, compounds were 3-fold serial diluted from 10 µM for 10 concentrations in replicate wells.

CDK7 = CDK7 (Homo sapiens, UniProt P50613); test: experiment of inhibiting kinase activity (Caliper mobility shift assay), CDK7; type: biochemical; conditions: read-out: inhibition rate CDK7; for inhibition at 0.1 µM: at 100 nM
In short: (§1)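 Steps: compound and kinase in 1× kinase buffer, 10 min at room temperature; ATP plus substrate added to start; reaction run at room temperature, then stopped. Conversion read by Caliper; IC50 from four-parameter variable-slope fit of % inhibition against log concentration.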

JAK3 = biological target: T1, JAK3 (Homo sapiens, UniProt P52333); test: experiment of inhibiting kinase activity (Caliper mobility shift assay), JAK3; type: biochemical; conditions: for inhibition at 0.01 µM: at 10 nM; for inhibition at 0.01 µM / inhibition at 0.1 µM: read-out: inhibition rate JAK3; for inhibition at 0.1 µM: at 100 nM
T1 sequence (P52333 1-1124): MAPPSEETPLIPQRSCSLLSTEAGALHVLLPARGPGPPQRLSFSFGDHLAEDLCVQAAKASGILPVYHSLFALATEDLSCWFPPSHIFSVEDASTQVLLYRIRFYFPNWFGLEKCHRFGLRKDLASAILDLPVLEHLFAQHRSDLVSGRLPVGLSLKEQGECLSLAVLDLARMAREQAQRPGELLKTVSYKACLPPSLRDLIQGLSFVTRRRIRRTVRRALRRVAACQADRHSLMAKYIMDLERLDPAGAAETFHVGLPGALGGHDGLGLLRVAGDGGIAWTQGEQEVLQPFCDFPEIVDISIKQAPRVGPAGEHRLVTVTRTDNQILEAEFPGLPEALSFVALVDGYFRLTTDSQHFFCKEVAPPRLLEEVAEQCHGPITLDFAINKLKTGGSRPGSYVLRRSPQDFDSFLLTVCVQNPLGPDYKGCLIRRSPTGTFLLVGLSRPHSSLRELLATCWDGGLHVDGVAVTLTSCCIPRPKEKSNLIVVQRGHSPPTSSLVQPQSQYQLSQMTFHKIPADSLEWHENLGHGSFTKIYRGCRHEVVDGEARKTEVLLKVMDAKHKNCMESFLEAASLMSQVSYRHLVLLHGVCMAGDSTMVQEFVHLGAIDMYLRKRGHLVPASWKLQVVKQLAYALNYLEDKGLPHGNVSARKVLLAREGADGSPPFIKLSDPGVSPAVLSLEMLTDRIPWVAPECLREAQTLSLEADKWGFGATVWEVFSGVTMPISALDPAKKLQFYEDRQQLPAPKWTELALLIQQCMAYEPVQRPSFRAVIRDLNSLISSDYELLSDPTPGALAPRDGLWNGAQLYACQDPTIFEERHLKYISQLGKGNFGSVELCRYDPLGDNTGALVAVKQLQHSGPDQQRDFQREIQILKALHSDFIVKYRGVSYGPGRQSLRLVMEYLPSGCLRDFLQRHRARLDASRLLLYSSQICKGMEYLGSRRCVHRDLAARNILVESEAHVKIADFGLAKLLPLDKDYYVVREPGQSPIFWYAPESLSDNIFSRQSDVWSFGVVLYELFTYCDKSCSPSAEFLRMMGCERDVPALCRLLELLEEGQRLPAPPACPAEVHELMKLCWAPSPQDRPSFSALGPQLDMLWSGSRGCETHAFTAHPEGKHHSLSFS
In short: as §1

JAK1 [1] = biological target: T2, JAK1 (Homo sapiens, UniProt P23458); test: experiment of inhibiting kinase activity (Caliper mobility shift assay), JAK1; type: biochemical; conditions: for inhibition at 0.1 µM: at 100 nM; for inhibition at 0.1 µM / inhibition at 0.01 µM: read-out: inhibition rate JAK1; for IC50: kinase activity assay, Table 3; for inhibition at 0.01 µM: at 10 nM
T2 sequence (P23458 whole entry): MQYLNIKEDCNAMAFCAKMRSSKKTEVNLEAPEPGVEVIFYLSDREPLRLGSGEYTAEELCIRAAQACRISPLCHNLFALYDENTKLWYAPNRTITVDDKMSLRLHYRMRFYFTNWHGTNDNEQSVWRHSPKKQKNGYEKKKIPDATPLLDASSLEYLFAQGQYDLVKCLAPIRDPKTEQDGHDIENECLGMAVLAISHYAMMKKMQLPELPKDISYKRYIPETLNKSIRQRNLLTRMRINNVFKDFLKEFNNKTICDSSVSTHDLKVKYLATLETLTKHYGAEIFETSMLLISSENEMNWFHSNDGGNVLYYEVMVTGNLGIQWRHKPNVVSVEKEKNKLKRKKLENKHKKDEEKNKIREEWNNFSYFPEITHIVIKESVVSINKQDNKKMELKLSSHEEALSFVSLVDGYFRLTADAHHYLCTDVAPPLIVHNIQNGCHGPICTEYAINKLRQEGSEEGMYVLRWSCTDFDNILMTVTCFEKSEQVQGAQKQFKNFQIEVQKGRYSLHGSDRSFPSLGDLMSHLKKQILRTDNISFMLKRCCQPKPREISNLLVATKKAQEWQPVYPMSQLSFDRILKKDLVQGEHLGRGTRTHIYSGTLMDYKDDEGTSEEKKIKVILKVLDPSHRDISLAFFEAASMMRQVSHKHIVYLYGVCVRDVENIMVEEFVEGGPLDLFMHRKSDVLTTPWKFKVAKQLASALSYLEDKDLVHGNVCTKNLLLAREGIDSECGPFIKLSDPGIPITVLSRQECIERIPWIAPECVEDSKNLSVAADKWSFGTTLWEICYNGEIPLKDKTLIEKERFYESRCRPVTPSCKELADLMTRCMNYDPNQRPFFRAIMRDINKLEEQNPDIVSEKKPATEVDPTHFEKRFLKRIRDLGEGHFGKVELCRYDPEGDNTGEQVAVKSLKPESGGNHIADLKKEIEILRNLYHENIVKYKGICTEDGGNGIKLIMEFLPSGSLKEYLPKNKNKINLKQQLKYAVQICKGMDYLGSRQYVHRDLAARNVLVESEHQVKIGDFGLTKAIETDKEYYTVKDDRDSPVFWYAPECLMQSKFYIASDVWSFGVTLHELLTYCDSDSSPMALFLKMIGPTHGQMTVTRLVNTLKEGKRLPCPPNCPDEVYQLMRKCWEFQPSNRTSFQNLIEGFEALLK
In short: as §1

JAK1 [2] = biological target: T2, JAK1; test: JAKs cell activity test: detection of pSTAT6 in THP1 cells induced by JAK1_IL-4; type: cell-based; conditions: pSTAT6, IL-4-induced THP1 cells
Method: Detection of pSTAT6 in THP1 cells induced by JAK1_IL-4
THP1 cells were collected by centrifugation, resuspended with 1×HBSS, counted and diluted to a certain cell density. They were inoculated in a 384-well plate and cultured in a saturated humidity incubator with 37 °C and 5% CO2. The compound (DMSO final volume of 0.3%) was added to THP1 cells (10 doses in duplicates) and cultured in a saturated humidity incubator with 37 °C and 5% CO2. hIL-4 was added to stimulate cells and cultured in a saturated humidity incubator with 37 °C and 5% CO2. The lysis solution was added and incubated at room temperature. According to the instructions of AlphaLISA SureFire Ultra p-STAT6 detection kit, the lysis solution was transferred to pSTAT6 detection system, and the ALPHA signal was read by PE Envision microplate reader. The inhibition rate Inh%=((DMSO-sample)/(DMSO-background))×100 was calculated. IC50 was obtained by fitting with GraphPad Prism non-linear regression equation, and y=Bottom+(Top-Bottom)/(1+10^((LogIC50-x)×hillslope)), where x was the concentration of the compound and y was the inhibition rate.

JAK2 = JAK2 (Homo sapiens, UniProt O60674); test: experiment of inhibiting kinase activity (Caliper mobility shift assay), JAK2; type: biochemical; conditions: for inhibition at 0.01 µM: at 10 nM; for inhibition at 0.01 µM / inhibition at 0.1 µM: read-out: inhibition rate JAK2; for inhibition at 0.1 µM: at 100 nM; for IC50: kinase activity assay, Table 3
Chain of JAK2 (O60674 whole entry): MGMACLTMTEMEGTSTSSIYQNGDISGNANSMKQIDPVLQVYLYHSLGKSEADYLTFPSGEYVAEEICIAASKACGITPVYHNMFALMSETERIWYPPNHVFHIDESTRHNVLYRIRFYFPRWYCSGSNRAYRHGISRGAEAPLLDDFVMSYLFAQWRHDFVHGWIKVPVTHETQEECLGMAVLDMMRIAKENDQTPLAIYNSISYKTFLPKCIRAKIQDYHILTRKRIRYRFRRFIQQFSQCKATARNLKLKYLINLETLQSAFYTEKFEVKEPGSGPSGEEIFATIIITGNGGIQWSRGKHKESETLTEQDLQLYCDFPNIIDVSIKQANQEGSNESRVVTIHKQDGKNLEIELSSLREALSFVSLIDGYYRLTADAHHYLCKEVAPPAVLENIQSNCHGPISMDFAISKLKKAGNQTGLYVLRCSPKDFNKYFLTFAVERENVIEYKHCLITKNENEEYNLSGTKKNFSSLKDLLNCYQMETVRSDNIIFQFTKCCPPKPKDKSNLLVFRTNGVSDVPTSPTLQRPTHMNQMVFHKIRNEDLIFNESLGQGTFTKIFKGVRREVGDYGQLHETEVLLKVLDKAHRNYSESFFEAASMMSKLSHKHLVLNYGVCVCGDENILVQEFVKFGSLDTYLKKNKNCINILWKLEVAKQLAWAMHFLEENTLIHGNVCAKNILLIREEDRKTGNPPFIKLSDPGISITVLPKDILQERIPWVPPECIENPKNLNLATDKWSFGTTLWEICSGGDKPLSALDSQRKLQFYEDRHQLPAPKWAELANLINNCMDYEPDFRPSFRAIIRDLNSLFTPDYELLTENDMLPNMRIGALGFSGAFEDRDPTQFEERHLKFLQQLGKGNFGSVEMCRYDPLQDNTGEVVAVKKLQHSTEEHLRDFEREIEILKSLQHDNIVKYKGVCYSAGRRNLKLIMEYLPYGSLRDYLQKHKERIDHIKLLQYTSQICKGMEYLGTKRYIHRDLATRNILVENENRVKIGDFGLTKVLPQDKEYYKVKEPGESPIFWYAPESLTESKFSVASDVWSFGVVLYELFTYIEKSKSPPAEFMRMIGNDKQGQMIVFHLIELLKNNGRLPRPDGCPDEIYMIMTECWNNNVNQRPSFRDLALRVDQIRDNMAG
In short: as §1

Chain of LRRK2 (Q5S007 whole entry): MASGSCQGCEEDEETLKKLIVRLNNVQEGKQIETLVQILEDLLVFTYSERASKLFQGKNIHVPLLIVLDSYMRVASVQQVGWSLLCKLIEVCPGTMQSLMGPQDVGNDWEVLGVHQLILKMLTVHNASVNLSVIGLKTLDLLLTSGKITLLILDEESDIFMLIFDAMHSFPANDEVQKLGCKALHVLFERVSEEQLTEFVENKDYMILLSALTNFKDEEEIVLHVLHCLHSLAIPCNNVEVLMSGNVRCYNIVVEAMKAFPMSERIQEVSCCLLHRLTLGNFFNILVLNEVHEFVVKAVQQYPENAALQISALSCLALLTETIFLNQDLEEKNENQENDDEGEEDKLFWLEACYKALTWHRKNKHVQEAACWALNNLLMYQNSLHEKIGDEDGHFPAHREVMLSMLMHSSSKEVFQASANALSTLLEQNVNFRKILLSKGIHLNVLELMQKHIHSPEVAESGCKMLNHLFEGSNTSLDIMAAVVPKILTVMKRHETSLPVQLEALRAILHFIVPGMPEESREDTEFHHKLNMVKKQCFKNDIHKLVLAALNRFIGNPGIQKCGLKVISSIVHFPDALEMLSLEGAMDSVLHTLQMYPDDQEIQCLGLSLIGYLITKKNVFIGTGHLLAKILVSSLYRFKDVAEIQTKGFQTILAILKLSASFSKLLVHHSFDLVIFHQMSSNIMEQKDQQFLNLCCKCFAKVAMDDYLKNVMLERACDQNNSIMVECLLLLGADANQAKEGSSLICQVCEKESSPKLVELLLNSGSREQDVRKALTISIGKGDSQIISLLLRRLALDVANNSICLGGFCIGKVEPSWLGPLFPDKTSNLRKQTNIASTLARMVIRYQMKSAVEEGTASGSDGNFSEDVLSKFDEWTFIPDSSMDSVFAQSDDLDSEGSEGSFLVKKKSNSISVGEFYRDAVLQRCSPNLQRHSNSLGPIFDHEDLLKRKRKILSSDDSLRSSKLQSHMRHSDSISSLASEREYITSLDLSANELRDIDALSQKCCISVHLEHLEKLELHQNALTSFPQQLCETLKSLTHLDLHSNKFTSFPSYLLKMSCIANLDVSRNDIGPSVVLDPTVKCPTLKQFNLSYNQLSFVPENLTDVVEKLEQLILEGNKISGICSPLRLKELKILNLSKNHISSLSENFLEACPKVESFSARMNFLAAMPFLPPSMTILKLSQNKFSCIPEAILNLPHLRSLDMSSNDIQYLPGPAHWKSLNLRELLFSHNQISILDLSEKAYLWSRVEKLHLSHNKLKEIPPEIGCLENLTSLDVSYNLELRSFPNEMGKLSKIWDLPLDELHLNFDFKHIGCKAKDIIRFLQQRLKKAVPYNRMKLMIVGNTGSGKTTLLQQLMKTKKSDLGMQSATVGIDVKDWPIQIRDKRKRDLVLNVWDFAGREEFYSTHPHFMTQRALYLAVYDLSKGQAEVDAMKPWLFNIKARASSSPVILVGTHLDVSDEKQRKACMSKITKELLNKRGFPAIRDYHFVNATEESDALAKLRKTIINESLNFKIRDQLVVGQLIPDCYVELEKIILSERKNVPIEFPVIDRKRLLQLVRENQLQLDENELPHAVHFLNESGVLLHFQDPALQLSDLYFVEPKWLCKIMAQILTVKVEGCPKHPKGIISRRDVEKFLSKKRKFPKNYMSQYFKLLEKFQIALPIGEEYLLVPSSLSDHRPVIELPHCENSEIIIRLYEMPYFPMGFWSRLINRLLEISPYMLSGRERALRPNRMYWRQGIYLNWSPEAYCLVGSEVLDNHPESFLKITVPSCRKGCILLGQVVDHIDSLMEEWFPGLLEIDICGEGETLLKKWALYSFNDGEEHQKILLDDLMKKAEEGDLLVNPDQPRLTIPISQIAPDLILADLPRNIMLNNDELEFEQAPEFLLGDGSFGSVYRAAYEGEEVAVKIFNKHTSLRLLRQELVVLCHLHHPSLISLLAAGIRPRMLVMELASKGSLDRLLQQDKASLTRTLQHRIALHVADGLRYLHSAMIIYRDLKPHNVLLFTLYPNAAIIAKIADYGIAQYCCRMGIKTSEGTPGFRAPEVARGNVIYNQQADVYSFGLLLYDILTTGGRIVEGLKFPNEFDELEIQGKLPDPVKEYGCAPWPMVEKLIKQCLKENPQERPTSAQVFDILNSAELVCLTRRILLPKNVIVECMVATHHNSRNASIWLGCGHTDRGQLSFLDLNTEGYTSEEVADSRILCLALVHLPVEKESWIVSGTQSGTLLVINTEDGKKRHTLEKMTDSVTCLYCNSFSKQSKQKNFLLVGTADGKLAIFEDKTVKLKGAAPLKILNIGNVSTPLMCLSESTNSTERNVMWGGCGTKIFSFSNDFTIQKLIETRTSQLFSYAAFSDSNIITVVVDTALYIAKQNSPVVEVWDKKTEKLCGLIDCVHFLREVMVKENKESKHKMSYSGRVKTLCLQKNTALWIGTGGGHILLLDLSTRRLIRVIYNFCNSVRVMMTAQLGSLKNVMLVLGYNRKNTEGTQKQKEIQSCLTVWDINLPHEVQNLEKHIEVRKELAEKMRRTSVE

inhibition at 0.1 µM (LRRK2) [%] | IC50 (LRRK2) [nM] | inhibition at 0.01 µM (CDK7; at 10 nM) [%] | inhibition at 0.1 µM (CDK7) [%] | inhibition at 0.01 µM (JAK3) [%] | inhibition at 0.1 µM (JAK3) [%] | IC50 (JAK3; kinase activity assay, Table 3) [nM] | inhibition at 0.1 µM (JAK1 [1]) [%] | IC50 (JAK1 [1]) [nM] | EC50 (JAK1 [2]) [nM] | inhibition at 0.01 µM (JAK2) [%] | inhibition at 0.1 µM (JAK2) [%] | IC50 (JAK2) [nM] | inhibition at 0.01 µM (LRRK2) [%] | inhibition at 0.01 µM (JAK1 [1]) [%] | SMILES
40 to 79 | 50 to 200 | 25 to 39 | > 80 | 40 to 79 | > 80 | < 50 | 40 to 79 | 50 to 200 | 50 to 500 | 40 to 79 | > 80 | < 50 | – | – | CN1CCOCCOc2cc(Nc3ncc(F)c(-c4ccc(C(=O)NCC#N)cc4)n3)ccc2OCC1 [Example 16, N-(cyanomethyl)-4-(5-fluoro-2-((7-methyl-2,3,6,7,8,9-hexahydro-5H-benzo[b][1,4,7]trioxa[10]azacyclododecan-13-yl)amino)pyrimidin-4-yl)benzamide]
> 80 | – | – | 40 to 79 | > 80 | > 80 | – | > 80 | – | < 50 | > 80 | > 80 | – | > 80 | > 80 | CN1CCOCCOc2cc(Nc3nc(-c4cnn(C(CC#N)C5CCCC5)c4)c4cc[nH]c4n3)ccc2OCC1 (stereo not drawn) [Example 26, 3-cyclopentyl-3-(4-(2-((7-methyl-2,3,6,7,8,9-hexahydro-5H-benzo[b][1,4,7]trioxa[10]azacyclododecan-13-yl)amino)-7H-pyrrolo[2,3-d]pytimidin-4-yl)-1H-pyrazol-1-yl)propionitrile]
> 80 | < 50 | – | – | – | – | – | > 80 | < 50 | < 50 | > 80 | > 80 | < 50 | 40 to 79 | > 80 | CCS(=O)(=O)N1CC(CC#N)(n2cc(-c3nc(Nc4ccc5c(c4)OCCN(C)CCO5)nc4[nH]ccc34)cn2)C1 [Example 28, 2-(1-(ethylsulfonyl)-3-(4-(2-((4-methyl-3,4,5,6-tetrahydro-2H-benzo[b][1,4,7]dioxazolin-9-yl)amino)-7H-pyrrolo[2,3-d]pytimidin-4-yl)-1H-pyrazol-1-yl)azetidin-3-yl) acetonitrile]
